Results taken from EP4778511A1, “PHARMACEUTICAL COMPOSITION, DRUG-LOADED ROD CORE, IMPLANT, PREPARATION METHOD THEREFOR, AND USE THEREOF” (SHENYANG XINGHUA PHARMACEUTICAL TECHNOLOGY CO., LTD, priority 2023, dated 2025).
Read-outs that look alike come from different tables or passages of the source. Each block holds one compound with its values, some of them ahead of it.

Legend:
[1] = reagent table, cited from earlier work
[2] = Average particle size and PDI of paliperidone after wet grinding (nanonization); format: physicochemical
Method: Active pharmaceutical ingredient: stabilizer = 5:1. The ball mill speed was 400 r·min^-1, the grinding media was 0.2 mm of zirconia beads with a volume of 20 mL, and the grinding time was 50 min. The effects of stabilizer types Poloxamer 188 (P188), Tween 80, Poloxamer 407 (P407), SDS, HPMC on the average particle size and PDI (PDI is a dimensionless value reflecting the width of particle size distribution, ranging from 0 to 1, a smaller value indicates a more uniform and narrower particle size distribution) of the active pharmaceutical ingredient after grinding are investigated. Table 29 Effects of different stabilizers on average particle size and PDI
Active pharmaceutical ingredient: stabilizer = 5:1. The ball mill speed was 400 r·min^-1, Poloxamer 188 was used as the stabilizer, the grinding media was 20 mL, and the grinding time was 50 min. The effects of 0.1 mm, 0.2 mm, and 0.3 mm zirconia beads on the average particle size and PDI of the active pharmaceutical ingredient after grinding were investigated. Table 30 Effects of different types of grinding media on average particle size and PDI
Active pharmaceutical ingredient: stabilizer = 5:1. The ball mill speed was 400 r·min^-1, Poloxamer 188 was used as the stabilizer, the grinding media was 0.1 mm zirconia beads. The effects of grinding time for 15 min, 25 min, 35 min, 45 min, 50 min, 60 min on the average particle size and PDI of the active pharmaceutical ingredient after grinding were investigated. Table 31 Effects of different grinding time on average particle size and PDI

[3] = stabilizer HPMC, 0.2 mm zirconia beads, grinding 50 min
[4] = stabilizer P188, 0.1 mm zirconia beads, grinding 15 min
[5] = stabilizer P188, 0.1 mm zirconia beads, grinding 25 min
[6] = stabilizer P188, 0.1 mm zirconia beads, grinding 35 min
[7] = stabilizer P188, 0.1 mm zirconia beads, grinding 45 min
[8] = stabilizer P188, 0.1 mm zirconia beads, grinding 50 min
[9] = stabilizer P188, 0.1 mm zirconia beads, grinding 60 min
[10] = stabilizer P188, 0.2 mm zirconia beads, grinding 50 min
[11] = stabilizer P188, 0.3 mm zirconia beads, grinding 50 min
[12] = stabilizer P407, 0.2 mm zirconia beads, grinding 50 min
[13] = stabilizer SDS, 0.2 mm zirconia beads, grinding 50 min
[14] = stabilizer Tween, 0.2 mm zirconia beads, grinding 50 min

SMILES: C#C[C@]1(O)C=C[C@H]2[C@@H]3CCC4=CC(=O)CC[C@@H]4[C@H]3CC[C@@]21CC [Gestodene]
- solubility ([1]; in water): Gestodene (purity 98%), molecular weight: 310.43, insoluble in water

SMILES: CC(=O)O[C@H]1C(=O)[C@@]2(C)[C@H]([C@H](OC(=O)c3ccccc3)[C@]3(O)C[C@H](OC(=O)[C@H](O)[C@@H](NC(=O)c4ccccc4)c4ccccc4)C(C)=C1C3(C)C)[C@]1(OC(C)=O)CO[C@@H]1C[C@@H]2O [Paclitaxel]
- solubility ([1]; in water): Paclitaxel (purity 99%), molecular weight: 853.92, insoluble in water

- Average particle size [2, 3]: 330 nm
- PDI [2, 3]: 0.18
- Average particle size [2, 4]: 820 nm
- PDI [2, 4]: 0.13
- Average particle size [2, 5]: 646 nm
- PDI [2, 5]: 0.14
- Average particle size [2, 6]: 430 nm
- PDI [2, 6]: 0.09
- Average particle size [2, 7]: 246 nm
- PDI [2, 7]: 0.08
- Average particle size [2, 8]: 220 nm
- PDI [2, 8]: 0.06
- Average particle size [2, 9]: 253 nm
- PDI [2, 9]: 0.12
- Average particle size [2, 10]: 240 nm
- PDI [2, 10]: 0.15
- Average particle size [2, 11]: 420 nm
- PDI [2, 11]: 0.25
- Average particle size [2, 12]: 417 nm
- PDI [2, 12]: 0.26
- Average particle size [2, 13]: 320 nm
- PDI [2, 13]: 0.21
- Average particle size [2, 14]: 250 nm
- PDI [2, 14]: 0.07
SMILES: Cc1nc2n(c(=O)c1CCN1CCC(c3noc4cc(F)ccc34)CC1)CCCC2O (stereo not shown) [Paliperidone]
- solubility [1]: Paliperidone (purity 98%), molecular weight: 426.48, solubility: 30 µg/ml.

SMILES: N[C@@H](Cc1cc(I)c(Oc2cc(I)c(O)c(I)c2)c(I)c1)C(=O)O [levothyroxine sodium]
- solubility [1]: levothyroxine sodium (purity 99%), molecular weight: 800.87, solubility: 150 µg/ml
